Literature values in patent publication US20240252348A1, “EVA SEGMENTED INTRAVAGINAL RINGS CONTAINING PROGESTERONE” (priority 2019, published 2024).

System: women with a short cervix
Settings: singleton pregnant women with short cervical length (SCL)

For CCCCCC(=O)O[C@]1(C(C)=O)CC[C@H]2[C@@H]3CCC4=CC(=O)CC[C@]4(C)[C@H]3CC[C@@]21C [Makena, 17-alpha hydroxyprogesterone caproate], the “prevention of preterm birth” value is listed as “ineffective”.
